US20260183283A1 (priority 2022, published 2026)
Like-named read-outs stand apart in the source and are kept apart here.

Experiments:
[1] = tested on: Pank1,2 neural knockout mice; test: Open field test in Pank1,2 neural knockout mice; assay type: in vivo; settings: 22.5 ppm in chow from postnatal day 14; postnatal day 45
Experimental: The mice were maintained at 72°±2° F., humidity 50%±10% and a 14-hour light/10-hour dark cycle with the dark cycle starting at 20:00 hrs. Water was supplied ad libitum. […] The mice were randomized into the treatment arms. […] Each animal was placed in the center of the arena under standard overhead lighting and the total distance traveled and the percentage of time in motion were recorded.

[2] = tested on: Pcca^−/−PCCA(A138T)^tg/0 mice; test: Plasma and urine metabolites (TCA cycle intermediates) in Pcca−/−PCCA(A138T)tg/0 mice; assay type: in vivo; settings: 22.5 ppm (3 mg/kg) in chow
Experimental: (§2) The mice were maintained at 72′±2° F., humidity 50%±10% and a 14-hour light/10-hour dark cycle with the dark cycle starting at 20:00 hrs. Water was supplied ad libitum. The mice were randomized into the treatment arms to achieve a normal weight distribution. […] Blood was collected in ethylenediaminetetraacetic acid (EDTA) at P50 by cardiac puncture from isoflurane-anesthetized animals, plasma was prepared and stored frozen at −80° C. until analysis. Liver, brain, and heart were quickly excised, immediately flash frozen in liquid nitrogen and stored frozen at −80° C. until analysis.
(§3) Metabolites from Urine and Plasma: Water was added to thawed 24-hr urine samples to a final volume of 1 mL for each mouse. To 100 μL of urine or 20 μL of plasma, warfarin standard was added at a final concentration of 0.2 μM and the sample was incubated at −80° C. for 1 hour. The sample was centrifuged at 6000×g for 10 minutes to remove precipitants and the supernatant was analyzed by LC/MS/MS. Analysis was performed using a Shimadzu Prominence UFLC attached to a QTrap 4500 equipped with a Turbo V ion source (Sciex). […] The system was controlled by the Analyst® software (Sciex) and analyzed with MultiQuant™ 3.0.2 software (Sciex). The relative amount of metabolite was normalized to the amount of warfarin then the ratio to creatinine was calculated.

[3] = 22.5 ppm (3 mg/kg) in chow for 30 days after weaning
Experimental: The mice were maintained at 72′±2° F., humidity 50%±10% and a 14-hour light/10-hour dark cycle with the dark cycle starting at 20:00 hrs. Water was supplied ad libitum. The mice were randomized into the treatment arms to achieve a normal weight distribution. […] However, this is merely an approximation, as Pcca^−/−PCCA(A138T)^tg/0 mice weigh less but also eat less than wild-type mice. […] Blood was collected in ethylenediaminetetraacetic acid (EDTA) at P50 by cardiac puncture from isoflurane-anesthetized animals, plasma was prepared and stored frozen at −80° C. until analysis. Liver, brain, and heart were quickly excised, immediately flash frozen in liquid nitrogen and stored frozen at −80° C. until analysis.
The samples were incubated on ice for 30 min. Samples were spun at 3500×g for 10 min to pellet debris, and the supernatant was transferred to a glass vial. […] 30 mg of tissue was homogenized in 2 mL of 80% methanol containing 0.1 μM warfarin and incubated at −80° C. for 4 hr. Samples were spun at 3500×g for 10 min to pellet debris, supernatant was transferred to a glass tube and dried down using a Savant SPD1010 Speed-Vac (Thermo Scientific) overnight. Samples were resuspended in 400 μL of 80% acetonitrile to a final concentration of 0.5 μM and transferred to a glass vial. […]

[4] = in vivo; settings: monkey
[5] = in vivo; settings: mouse, rat, dog, monkey, iv
[6] = tested on: Pcca^−/−PCCA(A138T)^tg/0 mice; test: Survival of Pcca−/−PCCA(A138T)tg/0 mice; assay type: in vivo; settings: 22.5 ppm (3 mg/kg) in chow; untreated ~51%
Source text: (§1) Water was supplied ad libitum.
At postnatal day 90, the probability of survival of Pcca^−/−PCCA(A138T)^tg/0 mice was ˜51%.

[7] = tested on: Pcca^−/−PCCA(A138T)^tg/0 mice; test: Plasma and urine acyl carnitines in Pcca−/−PCCA(A138T)tg/0 mice; assay type: in vivo
Experimental: as §2, §3

[8] = tested on: SynCre^+Pank1^−/−Pank2^−/− mice; test: Neurometabolites by 1H MRS in SynCre+Pank1−/−Pank2−/− mice; assay type: in vivo; settings: 10 mg/kg/day (75 ppm) in chow; midbrain 1H MRS at P45; normalized to total creatine; mean ± SD
Experimental: The ^1H MRS studies were performed on a Bruker Clinscan 7T magnetic resonance imaging (MRI) scanner (Bruker BioSpin MRI GmbH, Ettlingen, Germany). Mice were anesthetized using isoflurane mixed with oxygen (1-2%) and the respiration rate was monitored. Each MRI was acquired with a mouse brain surface receive coil positioned over the mouse head and placed inside a 72 mm transmit/receive coil. After the localizer, a T2-weighted turbo spin echo sequence was performed in the coronal (TR/TE=2290/41 ms, matrix size=192×256, slice thickness 0.5 mm, number of slices=14) and axial (TR/TE=3841/50 ms, matrix size=192×144, slice thickness 0.4 mm, number of slices=42) orientations. The T2-weighted scans were used to position a 3.5×4.5×2.0 mm^3 voxel for spectroscopy in the midbrain to cover thalamus and hippocampus. […] The in vivo ^1H MRS data were quantified as the Metabolite to tCr ratio using LCModel software (v.6.3), a widely applied MRS analysis tool that employs a least-squares-based prior-knowledge fitting program. The concentration of metabolites was measured using the unsuppressed water peak as a concentration standard. […]
Data analysis: Statistical significance (p values) was determined using a two-tailed Student's t test using GraphPad software. The MRS parameters were analyzed using ‘R’ 4.0.2 and the mean values and standard deviations were calculated for each group of mice. […]

[9] = oral gavage 10 mg/animal and 200 mg/animal; tablet or suspension
[10] = in vivo; settings: female, rat
[11] = rat, in vivo
[12] = tested on: Pcca^−/−PCCA(A138T)^tg/0 mice; test: Total CoA in liver and brain of Pcca−/−PCCA(A138T)tg/0 mice; assay type: in vivo; settings: 22.5 ppm (3 mg/kg) in chow for 30 days after weaning
Source text: as §1

[13] = tested on: Pank1,2 neural knockout mice; test: Survival of Pank1,2 neural knockout mice; assay type: in vivo; settings: 75 ppm in chow from postnatal day 14; untreated ~50%
Source text: Water was supplied ad libitum. Mice were maintained on a chow diet with purified ingredients containing 19% kcal protein, 66.5% kcal carbohydrate and 14.4% kcal fat (Envigo #TD170542) which was similar to standard rodent chow (LabDiet #5013). The mice were randomized into the treatment arms. […] However, this is an approximation, as SynCre^+Pank1^−/−Pank2^−/− mice both weigh less and eat less than wild-type mice. […] At the end of the dark cycle, individual mice were placed in an open rectangular arena (36.8 cm×43.2 cm) for 5 min during the light cycle and motor activity was evaluated using a video tracking system provided by HVS Image with associated 2100 Plus software (San Diego, CA, USA). Each animal was placed in the center of the arena under standard overhead lighting and the total distance traveled and the percentage of time in motion were recorded. The behaviors of age-matched control animals, treated with Compound (I) and untreated, were quantified and compared. […] Liver, forebrain and hindbrain were quickly excised, approximately 30-50 mg pieces were immediately flash frozen in liquid N2 and stored frozen at −80° C. until analysis. The plasma and tissue samples were used for Compound (I) and total CoA determinations.
Following analysis of movement, all animals were sacrificed at postnatal Day 45 for examination of tissue CoA levels.

[14] = tested on: PanK; test: Phase 1 pharmacodynamic biomarkers, plasma pantothenate and whole blood acetyl-CoA; assay type: in vivo, human; settings: MAD cohorts at steady-state
Source text: Pharmacodynamic biomarker assessments will include whole blood acetyl-CoA, plasma pantothenate, and other exploratory PD biomarkers.
Pharmacodynamic biomarker samples will be analyzed using a validated assay for the PD assessments.
In MAD cohorts at steady-state, decreases in the PanK substrate, pantothenate, were observed, concurrent with increases in the PanK product, acetyl-CoA, in whole blood.

[15] = dog, in vivo
[16] = tested on: C57BL/6J (wild-type) mice; settings: oral gavage QD 0.1, 1, 3, 10 or 30 mg/kg for one week; four hours after last dose
Experimental: Tissue Total CoA Determinations: Total CoA was quantified as described earlier. Either frozen brain or liver tissue (30-40 mg) was homogenized in 1 mM potassium hydroxide (KOH) to hydrolyze all the acyl chains and then the CoA was derivatized with monobromobimane (mBBr). […] The retention time was determined by running a CoA standard before each set of samples. Total CoA was quantified using a standard curve generated with known amounts of CoA.
Control animals were administered 0.5% methylcellulose QD for one week. Four hours after the last dose, the animals were sacrificed, plasma and tissues were collected, and CoA levels were determined in tissues. […] Statistical significance was determined for total CoA using a Student's t-test calculated with GraphPad software and P-values compared to the control animals are noted on the figure panels.

Compound: O=C(Cc1ccc(C2CC2)c(F)c1)N1CCN(c2ccc(Cl)nn2)CC1 [Compound (I), 1-(4-(6-chloropyridazin-3-yl)piperazin-1-yl)-2-(4-cyclopropyl-3-fluorophenyl)ethan-1-one]
- Movement in open field [1]: some improvement in movement
- Levels of methylcitrate, methylmalonate and α-ketoglutarate in plasma [2]: reduced
- Distribution of Compound (I) into liver, brain and heart [3]: well distributed into the liver, and to a lesser extent in brain and heart
- Exposure in female mice versus males [3]: higher exposures than males
- clearance ([4]; iv): 19.7 mL/min/kg
- bioavailability ([4]; po): 17.6%
- half-life [5]: 1 to 3 h
- Probability of survival at postnatal day 90 [6]: ~94%
- Decreased free carnitine and C2-carnitine levels in plasma and urine ([7]; 22.5 ppm (3 mg/kg) in chow for 30 days after weaning): rescued
- C3-carnitine in plasma ([7]; 22.5 ppm (3 mg/kg) in chow, plasma): decreased
- GABA (GABA/tCr) [8]: 0.40 ± 0.02
- Dose proportionality of exposure as defined by AUC0-24 [9]: dose proportional
- Dose proportionality of exposure as defined by Cmax [9]: close to dose proportional
- NOAEL at 13 weeks [10]: 8 mg/kg/day
- Accumulation after multiple doses [11]: Less than 2 fold
- Exposures in male rats versus female rats at the same doses [11]: lower exposures than female rats
- Increase of brain total CoA compared to untreated mice ([12]; brain): ~44%
- Increase of liver total CoA compared to untreated mice ([12]; liver): ~45%
- Probability of survival at postnatal Day 45 [13]: −70%
- Plasma Compound (I) concentration up to which increases in whole blood acetyl-CoA were observed [14]: ~200 mg/mL
- Plasma pantothenate ([14]; healthy adult subjects): decreased
- Whole blood acetyl-CoA ([14]; healthy adult subjects): increased
- Accumulation after multiple doses [15]: Less than 2 fold
- Brain (forebrain and hindbrain) total CoA response [16]: dose-responsive increase
